Laboratory results: patent US10881110B2, “Herbicidal compositions comprising isoxazolo[5,4-b]pyridines” (BASF SE, priority 2014, dated 2021)
Read-outs that look alike come from different tables or passages of the source.

How the values were obtained:
Test in all cases: greenhouse post-emergence herbicidal test
[1] = system: AMBEL; assay type: in vivo, Ambrosia artemisiifolia; design: key: rating on a scale from 0 to 100
Summary of the method: (§1)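 Each species was sown separately, grown to a height of 1 to 15 cm and then sprayed with water-dispersed components A, B and where relevant C. Growth conditions were 10-25° C or 20-35° C, and percent damage was recorded at 20 days.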

[2] = system: ECHCG; assay type: in vivo, Echinochloa crus-galli; design: key to herbicidal activity against ECHCG found / herbicidal activity against ECHCH found: scale 0 to 100; conditions: post emergence
Summary of the method: as §1

[3] = system: GERDI; assay type: in vivo, Geranium dissectum; design: key to herbicidal activity against GERDI found: rating on a scale from 0 to 100; conditions: post emergence
Summary of the method: as §1

[4] = I.1 31.25 g/ha, B.103 7.5 g/ha a.i.
[5] = I.1 62.5 g/ha, B.95 2 g/ha a.i.

O=C(O)c1cc(C2CC2)nc2onc(C3CC3)c12 [I.1]
herbicidal activity against AMBEL found ([1]; 31.25 g/ha a.i.): 85
herbicidal activity against AMBEL found ([1]; I.1 alone 125 g/ha a.i.): 65
herbicidal activity against AMBEL found ([1]; a.i. g/ha: I.1 20.8, B.192 62.5, 20 days after treatment): 30%
herbicidal activity against AMBEL found ([1]; application rate a.i.: I.1 31.25 g/ha, B.100 (isoxaflutole) 12.5 g/ha, alone or as mixture (composition 1.100)): 90
herbicidal activity against AMBEL found ([1]; application rate a.i.: I.1 31.25 g/ha, B.139 (pyroxasulfone) 12.5 g/ha, alone or as mixture (composition 1.139)): 65
herbicidal activity against AMBEL found ([1]; application rate a.i.: I.1 31.25 g/ha, B.84 (paraquat-dichloride) 17.5 g/ha, alone or as mixture (composition 1.84)): 65
herbicidal activity against AMBEL found ([1]; application rate a.i.: I.1 62.5 g/ha, B.100 (isoxaflutole) 12.5 g/ha, alone or as mixture (composition 1.100)): 90
herbicidal activity against AMBEL found ([1]; applied alone at 31.25 g/ha a.i.): 75
herbicidal activity against AMBEL found ([1]; single active, 15.62 g/ha a.i.): 0
herbicidal activity against AMBEL found ([1]; single active, 15.625 g/ha a.i.): 0
pest or weed control at 31.25 g/ha ([2]; Echinochloa crus-galli, post-emergence, 480 h, I.1 alone 31.25 g/ha a.i., read-out: herbicidal activity against ECHCG found): 0%
pest or weed control at 62.5 g/ha ([2]; Echinochloa crus-galli, post-emergence, 480 h, I.1 alone 62.5 g/ha a.i., read-out: herbicidal activity against ECHCG found): 45%
pest or weed control at 31.25 g/ha ([2]; Echinochloa crus-galli, post-emergence, 480 h, 31.25 g/ha a.i., read-out: herbicidal activity against ECHCG found): 0%
pest or weed control at 31.25 g/ha ([2]; Echinochloa crus-galli, post-emergence, 480 h, I.1 31.25 g/ha a.i., read-out: herbicidal activity against ECHCG found): 70%
pest or weed control at 15.62 g/ha ([2]; Echinochloa crus-galli, post-emergence, 480 h, single active, 15.62 g/ha a.i., read-out: herbicidal activity against ECHCG found): 0%
pest or weed control at 31.25 g/ha ([2]; Echinochloa crus-galli, post-emergence, 480 h, single active, 31.25 g/ha a.i., read-out: herbicidal activity against ECHCG found): 10%
herbicidal activity against ECHCG found ([2]; I.1 15.62 g/ha, B.167 125 g/ha a.i.): 0
herbicidal activity against ECHCG found ([2]; I.1 15.62 g/ha, B.95 1 g/ha a.i.): 10
herbicidal activity against ECHCG found [2, 4]: 10
herbicidal activity against ECHCG found ([2]; I.1 31.25 g/ha, B.167 125 g/ha a.i.): 10
herbicidal activity against ECHCG found [2, 5]: 55
herbicidal activity against ECHCH found ([2]; I.1 125 g/ha a.i.): 85
herbicidal activity against ECHCG found ([2]; a.i. g/ha: I.1 20.8, B.67 62.5, 20 days after treatment): 30%
herbicidal activity against ECHCG found ([2]; a.i. g/ha: I.1 62.5, B.67 62.5, 20 days after treatment): 65%
herbicidal activity against ECHCG found ([2]; a.i. g/ha: I.1 62.5, B.79 25, 20 days after treatment): 65%
herbicidal activity against ECHCG found ([2]; application rate a.i.: I.1 31.25 g/ha, B.40 (imazethapyr) 7.5 g/ha, alone or as mixture (composition 1.40)): 0
herbicidal activity against ECHCG found ([2]; application rate a.i.: I.1 250 g/ha, B.193 15 g/ha, alone or as mixture (composition 1.193)): 95
pest or weed control at 62.5 g/ha ([3]; Geranium dissectum, post-emergence, 480 h, 62.5 g/ha a.i., read-out: herbicidal activity against GERDI found): 90%
pest or weed control at 31.25 g/ha ([3]; Geranium dissectum, post-emergence, 480 h, I.1 31.25 g/ha a.i., read-out: herbicidal activity against GERDI found): 50%
pest or weed control at 62.5 g/ha ([3]; Geranium dissectum, post-emergence, 480 h, I.1 62.5 g/ha a.i., read-out: herbicidal activity against GERDI found): 55%
pest or weed control at 15.625 g/ha ([3]; Geranium dissectum, post-emergence, 480 h, single active, 15.625 g/ha a.i., read-out: herbicidal activity against GERDI found): 0%
pest or weed control at 31.25 g/ha ([3]; Geranium dissectum, post-emergence, 480 h, single active, 31.25 g/ha a.i., read-out: herbicidal activity against GERDI found): 10%
pest or weed control at 62.5 g/ha ([3]; Geranium dissectum, post-emergence, 480 h, single active, 62.5 g/ha a.i., read-out: herbicidal activity against GERDI found): 60%
pest or weed control at 125 g/ha ([3]; Geranium dissectum, post-emergence, 480 h, single active, 125 g/ha a.i., read-out: herbicidal activity against GERDI found): 70%
herbicidal activity against GERDI found ([3]; I.1 15.6 g/ha, B.103 7.5 g/ha a.i.): 0
herbicidal activity against GERDI found ([3]; I.1 15.62 g/ha, B.89 25 g/ha a.i.): 0
herbicidal activity against GERDI found [3, 4]: 30
herbicidal activity against GERDI found ([3]; I.1 31.25 g/ha, B.103 15 g/ha a.i.): 30
herbicidal activity against GERDI found ([3]; I.1 62.5 g/ha, B.103 7.5 g/ha a.i.): 60
herbicidal activity against GERDI found ([3]; I.1 62.5 g/ha, B.103 15 g/ha a.i.): 60
herbicidal activity against GERDI found ([3]; I.1 62.5 g/ha, B.167 125 g/ha a.i.): 60
herbicidal activity against GERDI found ([3]; I.1 62.5 g/ha, B.88 1 g/ha a.i.): 0
herbicidal activity against GERDI found ([3]; I.1 62.5 g/ha, B.88 2 g/ha a.i.): 0
herbicidal activity against GERDI found ([3]; I.1 62.5 g/ha, B.89 12.5 g/ha a.i.): 0
herbicidal activity against GERDI found ([3]; I.1 62.5 g/ha, B.89 25 g/ha a.i.): 0
herbicidal activity against GERDI found ([3]; I.1 62.5 g/ha, B.95 1 g/ha a.i.): 0
herbicidal activity against GERDI found [3, 5]: 0
herbicidal activity against GERDI found ([3]; a.i. g/ha: I.1 7.8, B.67 125, 20 days after treatment): 0%
herbicidal activity against GERDI found ([3]; a.i. g/ha: I.1 15.6, B.67 125, 20 days after treatment): 0%
herbicidal activity against GERDI found ([3]; a.i. g/ha: I.1 31.25, B.190 62.5, 20 days after treatment): 30%
herbicidal activity against GERDI found ([3]; a.i. g/ha: I.1 31.25, B.67 125, 20 days after treatment): 30%
